pIC50: −log10 of the molar value.

Experimental findings from ChEMBL document CHEMBL3867469, “Discovery of phenoxyindazoles and phenylthioindazoles as RORγ inverse agonists” (Bioorg Med Chem Lett, 2016) are described below.

In data set [1] the target is T1, Nuclear receptor ROR-gamma (Homo sapiens, UniProt P51449).
T1 sequence (P51449 whole entry): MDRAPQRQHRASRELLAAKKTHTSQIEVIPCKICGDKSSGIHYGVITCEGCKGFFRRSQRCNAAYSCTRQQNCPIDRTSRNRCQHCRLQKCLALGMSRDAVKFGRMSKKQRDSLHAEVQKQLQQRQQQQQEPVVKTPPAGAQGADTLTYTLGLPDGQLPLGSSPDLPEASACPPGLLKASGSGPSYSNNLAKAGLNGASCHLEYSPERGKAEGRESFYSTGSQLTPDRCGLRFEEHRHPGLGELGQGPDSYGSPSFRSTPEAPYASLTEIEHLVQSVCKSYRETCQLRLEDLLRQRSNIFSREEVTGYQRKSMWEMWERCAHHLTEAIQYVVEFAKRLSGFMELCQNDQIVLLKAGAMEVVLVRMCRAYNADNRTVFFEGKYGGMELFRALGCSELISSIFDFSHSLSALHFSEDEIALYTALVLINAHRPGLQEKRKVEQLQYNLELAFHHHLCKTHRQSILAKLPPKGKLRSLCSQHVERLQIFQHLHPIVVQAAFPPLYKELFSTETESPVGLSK
Description: Inverse agonist activity at GAL4 DBD-fused RORgammat LBD (unknown origin) expressed in HG5LN cells after 18 hrs by luciferase reporter gene assay

Data set [2] concerns the target T2, Retinoic acid receptor gamma (Homo sapiens, UniProt P13631).
T2 sequence (P13631 whole entry): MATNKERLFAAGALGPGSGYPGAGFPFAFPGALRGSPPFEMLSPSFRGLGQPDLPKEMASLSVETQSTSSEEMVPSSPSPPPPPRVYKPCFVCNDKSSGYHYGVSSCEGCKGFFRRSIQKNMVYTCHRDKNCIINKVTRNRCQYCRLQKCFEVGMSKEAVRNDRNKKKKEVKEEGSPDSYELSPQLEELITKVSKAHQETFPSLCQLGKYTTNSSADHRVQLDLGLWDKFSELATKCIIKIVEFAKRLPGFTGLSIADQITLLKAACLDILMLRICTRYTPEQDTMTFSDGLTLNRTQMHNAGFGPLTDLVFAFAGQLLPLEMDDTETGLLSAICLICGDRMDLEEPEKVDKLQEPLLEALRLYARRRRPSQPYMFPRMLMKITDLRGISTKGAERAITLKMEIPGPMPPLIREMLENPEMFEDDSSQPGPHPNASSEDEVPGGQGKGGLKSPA
Description: Inverse agonist activity at GAL4 DBD-fused RARgamma LBD (unknown origin) expressed in human HG5LN cells after 18 hrs by luciferase reporter gene assay

The nature of data set [3]: physchem. Conditions: buffer, pH 6.5.
Data set [4] in a line: in vitro. Particulars: human, neonatal keratinocytes.
Description: Photocytotoxicity against human neonatal keratinocytes assessed as decrease in cell viability by measuring ratio of IC50 in presence of UV to IC50 in absence of UV after 30 mins by neutral red dye based assay

The pIC50 is the negative decadic logarithm of the IC50, by convention in mol/L. Read a low pIC50 as a large IC50. As a reminder, the logD is lipophilicity at a set pH, counting ionised and neutral species. A lower logD goes with lower lipophilicity. As to `CCS(=O)(=O)c1ccc(CC(=O)Nc2nc(-c3cccc(Cl)c3)c(C(=O)c3ccccc3Cl)s2)cc1`, the results for the pIC50 in data set [1] and in data set [2] were 7.10 and less than 5.00, respectively. Further, in data set [3], the logD worked out at 5.2.

For `O=C(O)c1ccc(-n2nc(Oc3c(Cl)cccc3Cl)c3c(F)cccc32)cc1`, the pIC50 was 6.59 in data set [1] and 6.10 in data set [2]. The same compound came in with a logD in data set [3] of 2.8. For the same compound, the selectivity ratio at 0.5 h in data set [4] is more than 90.

Regarding `CN(Cc1ccccc1)C(=O)c1ccc2c(c1)c(Sc1c(Cl)cccc1Cl)nn2-c1ccc(C(=O)O)cc1`, the pIC50 in data set [1] and in data set [2] was less than 5.00 in each case. Further, the logD in data set [3] turned out to be 2.9.

With `O=C(O)c1ccc(-n2nc(Sc3c(Cl)cccc3Cl)c3cc(C(=O)N4CCC4)ccc32)cc1`, the pIC50 in data set [1] was 5.92; in data set [2], 5.39. Further, in data set [3], the logD came out at 1.7.

In the case of `Cc1ccccc1Sc1nn(-c2ccc(C(=O)O)cc2)c2ccc(C(=O)N(C)C)cc12`, the pIC50 in data set [1] and in data set [2] was less than 5.00 in each case. The log distribution coefficient (logD) in data set [3] worked out at 1.4.

For `Cc1cc(C)c(Sc2nn(-c3ccc(C(=O)O)cc3)c3ccc(C(=O)N(C)C)cc23)c(C)c1`, the results for the pIC50 in data set [1] and in data set [2] were 5.57 and less than 5.00, respectively. In data set [3], this compound had a logD of 2.1.

Turning to `O=C(O)c1ccc(-n2nc(Oc3c(Cl)cccc3Cl)c3cccc(F)c32)cc1`, the negative-log IC50 (pIC50) in data set [1] is 7.06; in data set [2], 5.12. The compound also yielded a logD in data set [3] of 2.8. For the same compound, the selectivity ratio at 0.5 h in data set [4] is 30.

For the compound `CN(C)C(=O)c1ccc2c(c1)c(Sc1cc(Cl)ccc1Cl)nn2-c1ccc(C(=O)O)cc1`, the results for the pIC50 in data set [1] and in data set [2] were 5.37 and less than 5.00, respectively. The compound further showed a logD in data set [3] of 1.9.

Turning to `CN(C)C(=O)c1ccc2c(c1)c(Nc1c(Cl)cccc1Cl)nn2-c1ccc(C(=O)O)cc1`, the pIC50 is 5.44 in data set [1] and less than 5.00 in data set [2]. Further, the logD in data set [3] worked out at 0.9.

Turning to `Cc1cc(C(=O)O)ccc1-n1nc(Oc2c(Cl)cccc2Cl)c2ccccc21`, the pIC50 is 5.44 in data set [1] and 5.21 in data set [2]. The pH-dependent lipophilicity (logD) in data set [3] came out at 3. The selectivity ratio at 0.5 h in data set [4] was 41.

Turning to `Cc1cccc2c(Oc3c(Cl)cccc3Cl)nn(-c3ccc(C(=O)O)cc3)c12`, the pIC50 in data set [1] and in data set [2] was less than 5.00 each time. This compound showed a logD in data set [3] of 2.6.

Turning to `CCN(C)C(=O)c1ccc2c(c1)c(Sc1c(Cl)cccc1Cl)nn2-c1ccc(C(=O)O)cc1`, the pIC50 was 5.19 in data set [1] and less than 5.00 in data set [2]. Moreover, the logD in data set [3] stood at 1.9.

As for `CN(CCO)C(=O)c1ccc2c(c1)c(Sc1c(Cl)cccc1Cl)nn2-c1ccc(C(=O)O)cc1`, the pIC50 in data set [1] and in data set [2] was less than 5.00 throughout. Besides, the pH-dependent lipophilicity (logD) in data set [3] worked out at 0.8.

With `CN(C)C(=O)c1ccc2c(-c3ccc(C(=O)O)cc3)nn(C(=O)c3c(Cl)cccc3Cl)c2c1`, the pIC50 was 7.27 in data set [1] and less than 5.00 in data set [2]. Besides, in data set [3], the logD came out at 1.3.

Turning to `Cc1cccc2c1c(Oc1c(Cl)cccc1Cl)nn2-c1ccc(C(=O)O)cc1`, the results for the pIC50 in data set [1] and in data set [2] were 6.09 and 5.96, respectively. Besides, the logD in data set [3] was 3.6. Also, the selectivity ratio at 0.5 h in data set [4] is 19.

For `O=C(O)c1cc(F)c(-n2nc(Oc3c(Cl)cccc3Cl)c3ccccc32)c(F)c1`, the pIC50 in data set [1] was 6.51; in data set [2], less than 5.00. In data set [3], this compound yielded a logD of 2.9. Also, in data set [4], the selectivity ratio at 0.5 h was 16.

As to `CN(C)C(=O)c1ccc2c(c1)c(Oc1c(Cl)cccc1Cl)nn2-c1ccc(C(=O)O)cc1`, the pIC50 in data set [1] was 6.52; in data set [2] it was less than 5.00. In data set [3], this compound came in with a logD of 1.5.

Take `O=C(O)c1ccc(-n2nc(Sc3c(Cl)cccc3Cl)c3cc(C(=O)N4CCCC4)ccc32)cc1`: the values for the pIC50 in data set [1] and in data set [2] were 5.59 and less than 5.00, respectively. The compound also showed a pH-dependent lipophilicity (logD) in data set [3] of 1.9.

Take `O=C(O)c1ccc(-n2nc([S+]([O-])c3c(Cl)cccc3Cl)c3ccccc32)cc1` (stereo unspecified): the pIC50 in data set [1] is 5.21; in data set [2] it was 5.25. This compound yielded a logD in data set [3] of 1.2.

Turning to `CN1CCN(C(=O)c2ccc3c(c2)c(Sc2c(Cl)cccc2Cl)nn3-c2ccc(C(=O)O)cc2)CC1`, the pIC50 in data set [1] is 5.04; in data set [2], 5.11. The same compound returned a log distribution coefficient (logD) in data set [3] of 1.

On to `O=C(O)c1ccc(-n2nc(Nc3c(Cl)cccc3Cl)c3ccccc32)cc1`, for which the pIC50 in data set [1] is 5.60; in data set [2] it was less than 5.00. In data set [3], the logD amounted to 1.9.

On to `CS(=O)(=O)c1ccc2c(c1)c(Oc1c(Cl)cccc1Cl)nn2-c1ccc(C(=O)O)cc1`, for which the pIC50 in data set [1] is less than 5.00; in data set [2] it was 5.35. In data set [3], the logD stood at 1.7. Also, the selectivity ratio at 0.5 h in data set [4] was determined as 87.

Consider `O=C(O)c1ccc(-n2nc(Oc3c(Cl)cccc3Cl)c3ccccc32)c(F)c1`, for which the pIC50 was 6.62 in data set [1] and less than 5.00 in data set [2]. In addition, the logD in data set [3] worked out at 2.8. Also, the selectivity ratio at 0.5 h in data set [4] came out at 32.

Consider `CN(C)C(=O)c1ccc2c(c1)c(Sc1ccccc1)nn2-c1ccc(C(=O)O)cc1`, for which the pIC50 in data set [1] is less than 5.00; in data set [2] it was 5.46. The compound also returned a logD in data set [3] of 1.

Take `O=C(O)c1ccc(-n2nc(Sc3c(Cl)cccc3Cl)c3cc(C(=O)N4CCOCC4)ccc32)cc1`: the pIC50 in data set [1] is 5.22; in data set [2] it was 5.38. For the same compound, in data set [3], the logD came out at 1.5.

For the compound `CNC(=O)c1ccc2c(c1)c(Sc1c(Cl)cccc1Cl)nn2-c1ccc(C(=O)O)cc1`, the results for the pIC50 in data set [1] and in data set [2] were less than 5.00 and 5.57, respectively. This compound yielded a logD in data set [3] of 1.2.

As to `O=C(O)c1ccc(-n2nc(Cc3c(Cl)cccc3Cl)c3ccccc32)cc1`, the negative logarithm of the IC50 (pIC50) is 5.74 in data set [1] and 5.17 in data set [2]. Further, in data set [3], the logD turned out to be 2.8.

For `O=C(O)c1ccc(-n2nc(Oc3c(Cl)cccc3Cl)c3ccccc32)cc1`, the pIC50 in data set [1] is 6.85; in data set [2], 5.85. This compound yielded a logD in data set [3] of 2.8. The selectivity ratio at 0.5 h in data set [4] was more than 62.

For `CN(c1c(Cl)cccc1Cl)c1nn(-c2ccc(C(=O)O)cc2)c2ccccc12`, in data set [1], the pIC50 is less than 5.00. The compound also returned a logD in data set [3] of 2.6.

`Cc1ccc([C@@H](NC(=O)Cc2ccc3oc([C@@H](O)c4c(C)noc4C)cc3c2)c2ccccc2)c(C)c1`: the pIC50 in data set [1] was 7.36; in data set [2] it was less than 5.00. The compound also showed a logD in data set [3] of 4.7.

With `N#Cc1ccc2c(c1)c(Oc1c(Cl)cccc1Cl)nn2-c1ccc(C(=O)O)cc1`, the pIC50 is less than 5.00 in data set [1] and 5.85 in data set [2]. The same compound gave a logD in data set [3] of 2.6. Besides, in data set [4], the selectivity ratio at 0.5 h stood at 138.

`O=C(O)c1ccc(-n2nc(Sc3c(Cl)cccc3Cl)c3cc(C(=O)N4CC(F)(F)C4)ccc32)cc1`: the pIC50 in data set [1] was 6.14; in data set [2], less than 5.00. Moreover, in data set [3], the logD came to 2.3.

For `CN(C)C(=O)c1ccc2c(Oc3c(Cl)cccc3Cl)nn(-c3ccc(C(=O)O)cc3)c2c1`, the pIC50 in data set [1] and in data set [2] was less than 5.00 in each case. Further, in data set [3], the logD was 1.8. Moreover, in data set [4], the selectivity ratio at 0.5 h is 18.

Take `O=C(O)c1ccc(-n2nc(S(=O)(=O)c3c(Cl)cccc3Cl)c3ccccc32)cc1`: the figures for the pIC50 in data set [1] and in data set [2] were 5.32 and 5.08, respectively. The compound further came in with a logD in data set [3] of 1.8.
